From PubChem BioAssay AID2060626 (Molecular Pharmacology Branch, DTP, NCI, 2025)

Tested on: 168753-222-R-J1-PDC complex spheroid viability
Experiment: Anticancer human tumor 168753-222-R-J1-PDC patient-derived bladder carcinoma cell line growth inhibition [CLK]
Conditions: curve of first compound; second compound 0.0316 µM
Outline: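 Multi-cell-type spheroids combined patient-derived tumor cells with HUVEC endothelial cells and human mesenchymal stem cells. Paired agents were dosed in half-log steps down from about clinical Cmax, or from 10 microM where Cmax was unknown.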
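Further: viability measured after seven days of drug exposure.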

Point of comparison: CC(Nc1ccc2c(c1)OCCn1cc(N3C(=O)OCC3C(F)F)nc1-2)C(N)=O (stereo unspecified) + CNC(=O)c1ccc(Nc2nc(OC3CCCC3)c3c(-c4ccc5nc(C)oc5c4)c[nH]c3n2)c(OC)c1, IC50 161 nM. Against it:
- C#Cc1c(F)ccc2cc(O)cc(-c3ncc4c(N5CC6CCC(C5)N6)nc(OCC56CCCN5CC(F)C6)nc4c3F)c12 (stereo unspecified) + CNC(=O)c1ccc(Nc2nc(OC3CCCC3)c3c(-c4ccc5nc(C)oc5c4)c[nH]c3n2)c(OC)c1 — higher, > 10000 nM
- C=C(F)C(=O)N1CCN(c2nc(OCC3CCCN3C)nc3c2CCN(c2cccc4cccc(Cl)c24)C3)CC1CC#N (stereo unspecified) + CNC(=O)c1ccc(Nc2nc(OC3CCCC3)c3c(-c4ccc5nc(C)oc5c4)c[nH]c3n2)c(OC)c1 — higher, > 10000 nM
- CC(CO)NC(=O)c1cc(-c2ccc(Cl)cc2)nn(-c2cnn(C)c2)c1=O (stereo unspecified) + CNC(=O)c1ccc(Nc2nc(OC3CCCC3)c3c(-c4ccc5nc(C)oc5c4)c[nH]c3n2)c(OC)c1 — higher, > 10000 nM
- COc1c(OCCCN2CCOCC2)ccc2c3n(c(=NC(=O)c4cnc(N)nc4)nc12)CCN3 + CNC(=O)c1ccc(Nc2nc(OC3CCCC3)c3c(-c4ccc5nc(C)oc5c4)c[nH]c3n2)c(OC)c1 — 13-fold lower, 12 nM

Same assay, conditions: curve of first compound; second compound 0.1 µM

Point of comparison: COc1c(OCCCN2CCOCC2)ccc2c3n(c(=NC(=O)c4cnc(N)nc4)nc12)CCN3 + CNC(=O)c1ccc(Nc2nc(OC3CCCC3)c3c(-c4ccc5nc(C)oc5c4)c[nH]c3n2)c(OC)c1, IC50 13.1 nM. Against it:
- C#Cc1c(F)ccc2cc(O)cc(-c3ncc4c(N5CC6CCC(C5)N6)nc(OCC56CCCN5CC(F)C6)nc4c3F)c12 (stereo unspecified) + CNC(=O)c1ccc(Nc2nc(OC3CCCC3)c3c(-c4ccc5nc(C)oc5c4)c[nH]c3n2)c(OC)c1 — higher, > 10000 nM
- C=C(F)C(=O)N1CCN(c2nc(OCC3CCCN3C)nc3c2CCN(c2cccc4cccc(Cl)c24)C3)CC1CC#N (stereo unspecified) + CNC(=O)c1ccc(Nc2nc(OC3CCCC3)c3c(-c4ccc5nc(C)oc5c4)c[nH]c3n2)c(OC)c1 — 540-fold higher, 7020 nM
- CC(CO)NC(=O)c1cc(-c2ccc(Cl)cc2)nn(-c2cnn(C)c2)c1=O (stereo unspecified) + CNC(=O)c1ccc(Nc2nc(OC3CCCC3)c3c(-c4ccc5nc(C)oc5c4)c[nH]c3n2)c(OC)c1 — higher, > 10000 nM
- CC(Nc1ccc2c(c1)OCCn1cc(N3C(=O)OCC3C(F)F)nc1-2)C(N)=O (stereo unspecified) + CNC(=O)c1ccc(Nc2nc(OC3CCCC3)c3c(-c4ccc5nc(C)oc5c4)c[nH]c3n2)c(OC)c1 — 10-fold higher, 133 nM

Same assay, conditions: curve of first compound; second compound 0.316 µM

Point of comparison: COc1c(OCCCN2CCOCC2)ccc2c3n(c(=NC(=O)c4cnc(N)nc4)nc12)CCN3 + CNC(=O)c1ccc(Nc2nc(OC3CCCC3)c3c(-c4ccc5nc(C)oc5c4)c[nH]c3n2)c(OC)c1, IC50 5.16 nM. Against it:
- C#Cc1c(F)ccc2cc(O)cc(-c3ncc4c(N5CC6CCC(C5)N6)nc(OCC56CCCN5CC(F)C6)nc4c3F)c12 (stereo unspecified) + CNC(=O)c1ccc(Nc2nc(OC3CCCC3)c3c(-c4ccc5nc(C)oc5c4)c[nH]c3n2)c(OC)c1 — 1000-fold higher, 5140 nM
- C=C(F)C(=O)N1CCN(c2nc(OCC3CCCN3C)nc3c2CCN(c2cccc4cccc(Cl)c24)C3)CC1CC#N (stereo unspecified) + CNC(=O)c1ccc(Nc2nc(OC3CCCC3)c3c(-c4ccc5nc(C)oc5c4)c[nH]c3n2)c(OC)c1 — 1600-fold higher, 8050 nM
- CC(CO)NC(=O)c1cc(-c2ccc(Cl)cc2)nn(-c2cnn(C)c2)c1=O (stereo unspecified) + CNC(=O)c1ccc(Nc2nc(OC3CCCC3)c3c(-c4ccc5nc(C)oc5c4)c[nH]c3n2)c(OC)c1 — higher, > 10000 nM
- CC(Nc1ccc2c(c1)OCCn1cc(N3C(=O)OCC3C(F)F)nc1-2)C(N)=O (stereo unspecified) + CNC(=O)c1ccc(Nc2nc(OC3CCCC3)c3c(-c4ccc5nc(C)oc5c4)c[nH]c3n2)c(OC)c1 — 8.9-fold higher, 45.8 nM

Same assay, conditions: curve of first compound; second compound 1 µM

Point of comparison: C=C(F)C(=O)N1CCN(c2nc(OCC3CCCN3C)nc3c2CCN(c2cccc4cccc(Cl)c24)C3)CC1CC#N (stereo unspecified) + CNC(=O)c1ccc(Nc2nc(OC3CCCC3)c3c(-c4ccc5nc(C)oc5c4)c[nH]c3n2)c(OC)c1, IC50 41.2 nM. Against it:
- C#Cc1c(F)ccc2cc(O)cc(-c3ncc4c(N5CC6CCC(C5)N6)nc(OCC56CCCN5CC(F)C6)nc4c3F)c12 (stereo unspecified) + CNC(=O)c1ccc(Nc2nc(OC3CCCC3)c3c(-c4ccc5nc(C)oc5c4)c[nH]c3n2)c(OC)c1 — lower, < 31.6 nM
- CC(CO)NC(=O)c1cc(-c2ccc(Cl)cc2)nn(-c2cnn(C)c2)c1=O (stereo unspecified) + CNC(=O)c1ccc(Nc2nc(OC3CCCC3)c3c(-c4ccc5nc(C)oc5c4)c[nH]c3n2)c(OC)c1 — lower, < 31.6 nM
- CC(Nc1ccc2c(c1)OCCn1cc(N3C(=O)OCC3C(F)F)nc1-2)C(N)=O (stereo unspecified) + CNC(=O)c1ccc(Nc2nc(OC3CCCC3)c3c(-c4ccc5nc(C)oc5c4)c[nH]c3n2)c(OC)c1 — lower, < 31.6 nM
- COc1c(OCCCN2CCOCC2)ccc2c3n(c(=NC(=O)c4cnc(N)nc4)nc12)CCN3 + CNC(=O)c1ccc(Nc2nc(OC3CCCC3)c3c(-c4ccc5nc(C)oc5c4)c[nH]c3n2)c(OC)c1 — lower, < 3.16 nM

Same assay, conditions: curve of first compound; second compound 3.16 µM

C#Cc1c(F)ccc2cc(O)cc(-c3ncc4c(N5CC6CCC(C5)N6)nc(OCC56CCCN5CC(F)C6)nc4c3F)c12 (stereo unspecified) + CNC(=O)c1ccc(Nc2nc(OC3CCCC3)c3c(-c4ccc5nc(C)oc5c4)c[nH]c3n2)c(OC)c1 and C=C(F)C(=O)N1CCN(c2nc(OCC3CCCN3C)nc3c2CCN(c2cccc4cccc(Cl)c24)C3)CC1CC#N (stereo unspecified) + CNC(=O)c1ccc(Nc2nc(OC3CCCC3)c3c(-c4ccc5nc(C)oc5c4)c[nH]c3n2)c(OC)c1 cannot be ordered by IC50: < 31.6 nM for the first, < 31.6 nM for the second.

CC(CO)NC(=O)c1cc(-c2ccc(Cl)cc2)nn(-c2cnn(C)c2)c1=O (stereo unspecified) + CNC(=O)c1ccc(Nc2nc(OC3CCCC3)c3c(-c4ccc5nc(C)oc5c4)c[nH]c3n2)c(OC)c1 and CC(Nc1ccc2c(c1)OCCn1cc(N3C(=O)OCC3C(F)F)nc1-2)C(N)=O (stereo unspecified) + CNC(=O)c1ccc(Nc2nc(OC3CCCC3)c3c(-c4ccc5nc(C)oc5c4)c[nH]c3n2)c(OC)c1 cannot be ordered by IC50: < 31.6 nM for the first, < 31.6 nM for the second.

For COc1c(OCCCN2CCOCC2)ccc2c3n(c(=NC(=O)c4cnc(N)nc4)nc12)CCN3 + CNC(=O)c1ccc(Nc2nc(OC3CCCC3)c3c(-c4ccc5nc(C)oc5c4)c[nH]c3n2)c(OC)c1, the IC50 was < 3.16 nM.

Same assay, conditions: curve of first compound; second compound 10 µM

In the case of C#Cc1c(F)ccc2cc(O)cc(-c3ncc4c(N5CC6CCC(C5)N6)nc(OCC56CCCN5CC(F)C6)nc4c3F)c12 (stereo unspecified) + CNC(=O)c1ccc(Nc2nc(OC3CCCC3)c3c(-c4ccc5nc(C)oc5c4)c[nH]c3n2)c(OC)c1, the IC50 is reported as < 31.6 nM.
